{"source": "patent US20250136563A1", "about": "“THIADIAZOLONE DERIVATIVES USEFUL AS AMPK ACTIVATOR” (Betagenon AB, priority 2021, published 2025)", "key": {"[1]": {"assay": "Single dose oral pharmacokinetic study of Compounds 1 and 3 in Sprague Dawley rats", "assay_type": "in vivo", "details": "equimolar doses", "method": "10.0 mL of 2% w/v methyl cellulose solution in phosphate buffer (pH 7.5) was added to a 100 mL conical flask along with 1 g of 2 mm glass beads. The solution was vigorously stirred on a magnetic stirrer. 100 mg of Compound 1 was slowly added to the solution, and the solution was vigorously stirred for approximately 1 h. The pH of the formulation was measured to be 7.49. Each formulation was freshly prepared prior to administration to the animals. The final concentration of Compound 1 in of the formulation was 10 mg/mL. The formulation was administered at 5 mL/kg body weight.\n6 mL of 2% w/v methyl cellulose solution in phosphate buffer (pH 7.5) was added to a 25 mL of conical flask together with 1 g of 2 mm glass beads. The solution was vigorously stirred on a magnetic stirrer. 78 mg of Compound 3 was slowly added to the solution, and the solution was vigorously stirred for approximately 1 h. The pH of the formulation was measured to be 7.41. […]\nThe results for the single dose oral pharmacokinetic study in rats are tabulated in Tables 5 and 6 below and are shown graphically in FIG. 2. In Table 5, the Cmax, Tmax, AUClast, AUCinf, AUCextrap, T1/2 and MRTlast values are for 4-chloro-N-[2-[(4-chlorophenyl)methyl]-3-oxo-1,2,4-thiadiazol-5-yl]benzamide (Compound 1), which was detected following the administration of both Compounds 1 and 3."}, "[2]": {"assay": "Stability in buffers pH 1.20, 7.40 and 9.20 (Examples 26 and 27)", "description": "The stability of Compound 17 was assessed in buffers with pH 1.20, 7.40 and 9.20. The pH 1.20 study was conducted using an HCl buffer. A phosphate buffer was used for the pH 7.40 medium, and an alkaline borate buffer was used for the pH 9.20 medium.\nHCl buffer—Potassium chloride (1.491 g) was dissolved in 100 mL of Ultrapure water type-1 to get 0.2 M KCl solution. About 50 mL of 0.2 M KCl was taken in a beaker and the pH was adjusted to 1.20 using 0.2 M HCl solution. The final volume was made up to 200 mL using Ultrapure water type-1 and stored at room temperature (22±3° C.).\nPhosphate buffer—Potassium phosphate monobasic (2.722 g) was dissolved in 100 mL of Ultrapure water type-1 to get 0.2 M solution. About 50 mL of 0.2 M solution was taken in a beaker and the pH was adjusted to 7.40 using 0.2 M NaOH solution. The final volume was made up to 200 mL using Ultrapure water type-1 and stored at room temperature (22±3° C.).\nAlkaline borate buffer—Boric acid (1.237 g) and potassium chloride (1.491 g) were dissolved in 100 mL of Ultrapure water type-1 to get 0.2 M solution. About 50 mL of 0.2 M solution was taken in beaker and the pH was adjusted to 9.20 using 0.2 M NaOH solution. The final volume was made up to 200 mL using Ultrapure water type-1 and stored at room temperature (22±3° C.).\n5 μM solutions of Compound 17 in each buffer were prepared with 5 mM DMSO stock solutions. The solutions were incubated at 22 t 3° C. for 120 minutes, with shaking at 400 rpm using a thermomixer.\nAfter 0, 15, 30, 60 and 120 minute intervals, aliquots of sufficient volume of the compound solutions were taken, diluted and analysed to determine the stability of Compound 17 in each solution, as well as the amount of Compound 1 present. The amount of Compound 1 present was compared to the amount expected assuming full conversion of Compound 17 to Compound 1.\nThe stability of Compounds 3, 6, 9, 20 and 23 was tested using the same methods as described above for Compound 17."}, "AMPK": {"test_system": "AMPK", "assay": "Activation of AMPK: Western blot of p-T172 AMPKα in INS-1E insulinoma cells", "assay_type": "cell-based", "details": "for ratio between p-T172 AMPK and non-phosphorylated AMPK: INS-1E cells, 4 h, control 1.00", "method": "INS-1E cells were cultivated as described in Steneberg et al., JCI Insight. 2018; 3(12):e99114. https://doi.org/10.1172/jci.insight.99114, using 5% instead of 10% fetal bovine serum when plated for treatment.\nCompound 3 was dissolved at 10 mM in DMSO and frozen at −20° C.\nThe INS-1E cells were treated in serum free medium with increasing doses of Compound 3 for 4 hours in accordance with the methods described in Steneberg et al., JCI Insight. 2018; 3(12):e99114. https://doi.org/10.1172/jci.insight.99114.\nWestern blot analysis of the INS-1E cells was performed as described in Steneberg et. al., JCI Insight. 2018; 3(12):e99114. https://doi.org/10.1172/jci.insight.99114. The cell lysates were passed through a 30-gauge needle, ˜8-times and centrifuged for 10 min at +4° C. at 14000 rpm. Quantified values for AMPKα, and phosphorylated-T172 AMPKα, were normalized toward the quantified values for β-Actin."}, "[3]": {"assay": "Stability in HCl buffer (pH 1.20), 37° C.", "assay_type": "physicochemical", "details": "for % remaining compared to 0.0 min: HCl buffer pH 1.20, 37° C.", "method": "5 μM solutions of Compound 1 and Compound 4 (i.e. the citric acid salt of Compound 3) in HCl buffer (pH: 1.20) were prepared with 5 mM DMSO stock solutions."}}, "note": "“Also recorded” adds a separate entry of the source.", "data": [{"smiles": "CN(C)CC(=O)OCn1c(=O)n(Cc2ccc(Cl)cc2)s/c1=N\\C(=O)c1ccc(Cl)cc1", "note": "[Compound 3, Dimethylamino-Acetic Acid 5-[(Z)-4-chloro-benzoylimino]-2-(4-chloro-benzyl)-3-oxo-[1,2,4]thiadiazolidin-4-ylmethyl Ester]", "values": [{"measurement": "increase in systemic exposure of Compound 1 after oral Compound 3 versus oral Compound 1", "setting": "[1]", "value": "ten-fold"}, {"measurement": "% remaining after 15 min", "setting": "[2]; buffer pH 1.2", "value": 97, "unit": "%"}, {"measurement": "% remaining after 30 min", "setting": "[2]; buffer pH 1.2", "value": 83, "unit": "%"}, {"measurement": "% remaining after 15 min", "setting": "[2]; buffer pH 7.4", "value": 46, "unit": "%"}, {"measurement": "% remaining after 30 min", "setting": "[2]; buffer pH 7.4", "value": 16, "unit": "%"}, {"measurement": "ratio between p-T172 AMPK and non-phosphorylated AMPK", "setting": "AMPK; 1.25 μM", "value": 1.24}, {"measurement": "ratio between p-T172 AMPK and non-phosphorylated AMPK", "setting": "AMPK; 2.5 μM", "value": 2.24}, {"measurement": "ratio between p-T172 AMPK and non-phosphorylated AMPK", "setting": "AMPK; 5 μM", "value": 5.99}, {"measurement": "phosphorylation of AMPK (in words)", "setting": "AMPK; cultured INS-1E cells", "value": "increases phosphorylation of AMPK in a dose-dependent manner; also recorded: increases phosphorylated-T172 AMPK in a dose-dependent manner"}, {"measurement": "% remaining compared to 0.0 min", "setting": "[3]; 0.0 min", "value": 100.00, "unit": "%"}, {"measurement": "% remaining compared to 0.0 min", "setting": "[3]; 15 min", "value": 96.92, "unit": "%"}, {"measurement": "% remaining compared to 0.0 min", "setting": "[3]; 30 min", "value": 83.74, "unit": "%"}, {"measurement": "% remaining compared to 0.0 min", "setting": "[3]; 60 min", "value": 86.54, "unit": "%"}, {"measurement": "% remaining compared to 0.0 min", "setting": "[3]; 120 min", "value": 88.31, "unit": "%"}, {"measurement": "stability in acidic solutions (in words)", "setting": "[3]; pH 1.2", "value": "greater stability than Compound 1"}]}]}
